For the assay, the system named is Hepatocyte spheroids. The assay can be described thus: This assay model using primary human hepatocyte (PHH) spheroids, which are cultured in Williams E medium. After spheroid formation, cells are exposed to compounds in an FBS-free culture medium. […] Imaging is performed on an Opera Phenix High-Content Screening System, allowing quantification of proliferation as a readout for evaluating the effects of chemical probes on hepatocyte regeneration. The class given is functional. The conditions noted are these: read-out: Cell Viability; for viability at 0.1 µM: Concentration 0.1 uM; for viability at 1 µM: Concentration 1 uM; for viability at 10 µM: Concentration 10 uM.

Viability data for 44 molecules are collected here from ChEMBL document CHEMBL5608109, “Hepatotoxicity screening of Donated Chemical Probes” (2024).

As to `CN(C)C(=O)Cn1cc(-c2nc([C@@](C)(c3ccc(-c4cnc(N)nc4)cc3)C3CC3)no2)cn1` [BI 665915], the viability – broadly, a read-out of living cells in per cent, often relative to untreated cells – at 0.1 µM is listed as 104% (non-toxic) and the viability at 1 µM is 84.4% (non-toxic).

Take `C=CC(=O)Nc1ccc2[nH]c(=O)n(C3CCN(Cc4ccc(-c5nc6cc[nH]c(=O)c6cc5-c5ccccc5)cc4)CC3)c2c1` [Borussertib]: the viability at 1 µM was 48.8% (toxic) and the viability at 10 µM was 16% (toxic).

Consider `COCCc1ccc(-c2c(C)nc3c(N4CCOCC4)ccnn23)cn1` [JNJ-42396302], for which the viability at 1 µM is recorded as 158% (non-toxic) and the viability at 10 µM is 160% (non-toxic).

`CN(C)CC#Cc1ccc(OCCCc2sc(N3CCc4cccc(C(=O)Nc5nc6ccccc6s5)c4C3)nc2C(=O)O)c(F)c1` [A-1155463]: the viability at 1 µM is reported as 120% (non-toxic) and the viability at 10 µM was 117% (non-toxic).

Regarding `CC(=O)Nc1c(F)cc(C(=O)N[C@H]2CC[C@H](O)CC2)cc1O[C@@H](C)c1ccccc1` [GSK046], the viability at 1 µM was 96.7% (non-toxic) and the viability at 10 µM is recorded as 85.2% (non-toxic).

As for `CNC(=O)c1ccc(Nc2ncc(C(F)(F)F)c(NCc3nccnc3N(C)S(C)(=O)=O)n2)cc1` [DEFACTINIB], the viability at 0.1 µM is listed as 46.1% (toxic) and the viability at 1 µM is 55.4% (toxic).

In the case of `CNCc1ccccc1-c1csc([C@@H](C)Nc2nc(C)nc3cc(OC)c(OC)cc23)c1` [BAY-293], the viability at 1 µM is 120% (non-toxic) and the viability at 10 µM is 0.873% (toxic).

As to `CCOCCn1cc(C(=O)Nc2ccc(-n3nc(-c4cccnc4)cc3C(F)(F)F)cn2)ccc1=O` [BI 1935], the viability at 1 µM is 100% (non-toxic) and the viability at 10 µM was 34.7% (toxic).

In the case of `N#CC1(c2ccccn2)CCN(Cc2cc(C(=O)O)c(=O)n3ccccc23)CC1` [MSD-M1PAM], the viability at 1 µM is given as 112% (non-toxic) and the viability at 10 µM is listed as 87.1% (non-toxic).

Turning to `CNC(=O)Nc1ccc2c(c1)CC[C@@]21OC(=O)N(CC(=O)N(Cc2ccc(F)cc2)[C@@H](C)C(F)(F)F)C1=O` [A-485], the viability at 0.1 µM was 102% (non-toxic) and the viability at 1 µM is reported as 69.1% (toxic).

In the case of `CCC(F)(F)c1cc(N2CCC(S(C)(=O)=O)CC2)nc2sc(C(N)=O)c(N)c12` [BI-605906], the viability at 1 µM is listed as 103% (non-toxic) and the viability at 10 µM is 134% (non-toxic).

For `CN1CCN(C(=O)C(C)(C)c2ccc(C(=O)Nc3cn4cc(-c5ccncc5)ccc4n3)cc2)CC1` [T3-CLK], the viability at 1 µM was 109% (non-toxic) and the viability at 10 µM is 1.01% (toxic).

For `Cn1nc(C(F)(F)F)cc1-c1cnc(N2CCc3cc(S(=O)(=O)Nc4c(F)cc(Cl)cc4F)cc(N4CCCC4=O)c32)nc1` [TP-020], the viability at 1 µM was 121% (non-toxic) and the viability at 10 µM is reported as 120% (non-toxic).

Regarding `Cc1cc2c(-c3ccco3)cnc(N[C@@H]3CCN(C)C[C@H]3C(=O)NC3CCCCC3)c2[nH]c1=O` [GSK789], the viability at 1 µM is 52.2% (toxic) and the viability at 10 µM is recorded as 27.6% (toxic).

`Cc1c[nH]c2nccc(Oc3c(F)cc(Nc4cc(Cl)nc(N)n4)cc3F)c12` [BAY-549]: the viability at 0.1 µM is reported as 79.9% (non-toxic) and the viability at 1 µM is recorded as 83.7% (non-toxic).

Regarding `NC(=O)c1ccc2nc(-c3ccc(C4(N)CCC4)cc3)c(-c3ccccc3)n2n1` [BAY-1125976], the viability at 0.1 µM is listed as 94.8% (non-toxic) and the viability at 1 µM is given as 75.2% (non-toxic).

For the molecule `Cc1cnc(-c2cc(Cl)ccc2F)cc1-n1c(=O)n(CC(N)=O)c2cnccc21` [TP-008], the viability at 1 µM is 90% (non-toxic) and the viability at 10 µM is given as 99.1% (non-toxic).

With `Cc1c(NC(=O)c2cc(C(N)=O)nc3cc(F)ccc23)c(C(F)(F)F)nn1Cc1ccc(C#N)cc1` [BAY-876], the viability at 1 µM is 91.5% (non-toxic) and the viability at 10 µM is given as 21.4% (toxic).

Regarding `CN(C)[C@@H]1CCN(c2cc(-c3ccccc3)nc3ccnn23)C1` [(R)-ZINC-3573], the viability at 1 µM is reported as 111% (non-toxic) and the viability at 10 µM is on record as 95.8% (non-toxic).

For the molecule `CO[C@@H](C)c1c(Nc2ccc([C@H](N(C)C(=O)C3CCS(=O)(=O)CC3)C(F)(F)F)cc2)cnc2cc(Cl)nn12` [NVS-MALT1], the viability at 1 µM is given as 99.7% (non-toxic) and the viability at 10 µM is reported as 33.9% (toxic).

For the molecule `Cc1c(N2CCCC2)nc2ccc(Br)cc2c1C(=O)NC[C@H](CCC(=O)O)c1ccccc1Cl` [BAY-6672], the viability at 1 µM is 106% (non-toxic) and the viability at 10 µM was 111% (non-toxic).

As for `CC1=CC(C)=[N+]2C1=C(CCCCc1cn(CC(=O)N3CCc4nc(NC(=O)[C@H]5CCN(C#N)C5)sc4C3)nn1)c1c(C)cc(C)n1[B-]2(F)F`, the viability at 1 µM is listed as 104% (non-toxic) and the viability at 10 µM is 105% (non-toxic).

On to `Cc1ccccc1Oc1cc(-n2c(=O)cc(C(F)(F)F)[nH]c2=O)c2ccccc2c1Cl` [BAY-069], for which the viability at 1 µM is 82.5% (non-toxic) and the viability at 10 µM is reported as 62.5% (toxic).

In the case of `CC(=O)C1=C(C)N(c2cccc(C(F)(F)F)c2)C(=O)N[C@@H]1c1ccc(C#N)nc1` [BAY-678], the viability at 1 µM is recorded as 139% (non-toxic) and the viability at 10 µM is reported as 132% (non-toxic).

Regarding `O=C(NC[C@@H]1[C@H]2CN(C(=O)OCc3cc(C(F)(F)F)cc(C(F)(F)F)c3)C[C@@H]12)c1ccc2[nH]nnc2c1` [BI 2545], the viability at 1 µM is 119% (non-toxic) and the viability at 10 µM was 76.5% (non-toxic).

With `COCCOc1nc(-c2ccc(Cl)nc2)nc2c1CN(C(=O)c1ncn3ccccc13)CC2` [THPP-1], the viability at 0.1 µM was 118% (non-toxic) and the viability at 1 µM was 116% (non-toxic).

On to `Cc1cc(Nc2nccc(C)n2)cc(-c2cnc([C@@]3(O)CC[C@H](C(=O)O)C(C)(C)C3)s2)c1` [MRL-SYKi], for which the viability at 0.1 µM is 98.8% (non-toxic) and the viability at 1 µM is 95.5% (non-toxic).

`CC(=O)Nc1ncc(CN2CCC[C@H](Cc3cc(C)nc(C)c3)C2)s1` [JNJ-65355394]: the viability at 1 µM is 149% (non-toxic) and the viability at 10 µM was 142% (non-toxic).

With `CCOC(=O)c1cc2cc(-c3cc(C(=O)NCc4ccc(C(=O)O)cc4)nn3C)ccc2[nH]1` [BI 4394], the viability at 0.1 µM was 108% (non-toxic) and the viability at 1 µM is reported as 106% (non-toxic).

`COc1ccc2c(O[C@@H]3C[C@H]4C(=O)N[C@]5(C(=O)O)CC5/C=C\CCCCC[C@H](NC(=O)OC5CCCC5)C(=O)N4C3)cc(-c3csc(NC(=O)C(C)C)n3)nc2c1C` (stereo partly drawn) [BI 1230]: the viability at 1 µM was 106% (non-toxic) and the viability at 10 µM was 0.711% (toxic).

Take `NS(=O)(=O)c1cc(NC(=O)Cc2ccccc2)ccc1Oc1cccc(Cl)c1` [BAY-1797]: the viability at 1 µM is on record as 111% (non-toxic) and the viability at 10 µM is reported as 19.3% (toxic).

`Nc1c(C(=O)NCc2ccc(C(=O)NCCCC3CCCCC3)cc2)cnn1-c1ccccc1` [SR-318]: the viability at 0.1 µM is recorded as 81.4% (non-toxic) and the viability at 1 µM is on record as 89.8% (non-toxic).

Take `CCS(=O)(=O)c1cc2cc(C[C@](O)(CC(C)(C)c3ccc(F)cc3C(N)=O)C(F)(F)F)[nH]c2cn1` [BI 653048]: the viability at 1 µM is recorded as 116% (non-toxic) and the viability at 10 µM is 116% (non-toxic).

Consider `COc1ccc2cc(OCC3(C(=O)O)CN(C(=O)c4ccc(F)cc4)C3)ccc2c1` [PF-04418948], for which the viability at 0.1 µM is reported as 157% (non-toxic) and the viability at 1 µM is given as 153% (toxic).

On to `O=C(N1CCS(=O)(=O)CC1)N1C[C@H](c2ccc(OC(F)(F)F)cc2)C[C@H](c2nc(C3CC3)no2)C1` [BAY-386], for which the viability at 1 µM is listed as 121% (non-toxic) and the viability at 10 µM is recorded as 111% (non-toxic).

As for `O=S(=O)(NC1CCC(c2cc(F)ccc2F)(S(=O)(=O)c2ccc(Cl)cc2)CC1)C(F)(F)F` (stereo not drawn) [MRK-560], the viability at 0.1 µM is 101% (non-toxic) and the viability at 1 µM was 76.1% (non-toxic).

As to `CC(=O)Nc1c(C(C)=O)c(=O)n(C)c2nc(-c3ccc(Cl)cc3Cl)c(-c3ccc(Cl)cc3)cc12` [NAPHTHYRIDINONE], the viability at 1 µM is listed as 117% (non-toxic) and the viability at 10 µM is on record as 121% (non-toxic).

Regarding `Cn1cncc1[C@](O)(COc1ccc(C#N)cc1-c1ccc(OC(F)(F)F)cc1)c1ccc(C#N)cc1`, the viability at 1 µM is reported as 112% (non-toxic) and the viability at 10 µM is recorded as 113% (non-toxic).

As for `COc1nc2ccc([C@@](O)(c3ccccc3)C3CCN(C(C)=O)CC3)cc2c(Cl)c1Cc1ccc(-n2cccn2)cc1` [JNJ-54119936], the viability at 1 µM is 116% (non-toxic) and the viability at 10 µM is listed as 114% (non-toxic).

As for `C[C@H](c1ccc(F)cc1)N(Cc1cccc(C(=O)O)c1)C(=O)c1cnc2ccccc2c1` [PF-05105679], the viability at 1 µM is listed as 126% (non-toxic) and the viability at 10 µM was 120% (non-toxic).

Turning to `Cc1nc(N2CC[C@H](O)C2)ncc1-c1cc(C(F)(F)F)cc2[nH]ncc12`, the viability at 1 µM is 116% (non-toxic) and the viability at 10 µM was 107% (non-toxic).

As to `C[C@@H](c1cccc(CN)c1)n1cc(Cl)cc(C(N)=O)c1=N`, the viability at 1 µM is 104% (non-toxic) and the viability at 10 µM is on record as 111% (non-toxic).

For `COc1cc(-c2cn([C@H]3CCc4c(F)cccc4N(CC(F)(F)F)C3=O)nn2)ccc1-n1cnc(C)c1`, the viability at 1 µM is 115% (non-toxic) and the viability at 10 µM is 126% (non-toxic).

Regarding `CCOc1ccc(S(=O)(=O)Nc2ccc(Cl)cc2C#Cc2cnc(C(=O)O)cc2OC)c2ncccc12`, the viability at 1 µM is 91.1% (non-toxic) and the viability at 10 µM was 17.2% (toxic).
